From patent publication US20100022600A1, “METHODS AND COMPOSITIONS FOR TREATING CENTRAL NERVOUS SYSTEM TUMORS” (priority 2006, published 2010)

Legend:
[1] = Daily body weight in C6 rat glioma model; type: in vivo; details: daily weighing; vehicle group lost weight significantly at 17 d
Protocol: Before implantation, 85-90% confluent C6 cells were trypsinized, rinsed with DMEM+10% fetal calf serum, and centrifuged at 1000 rpm for 4 min. The cell pellet was resuspended in DMEM and placed on ice. Concentration of viable cells was adjusted to 1×10^5 cells/1 μl of DMEM. Each rat was anesthetized and placed in a stereotactic frame (David Kopf Instruments, Tujunga, Calif., USA), a hole was drilled at AP 0.0, R -3.0 relative to bregma according to the stereotaxic atlas of […], 1963). Tumor cells were injected at a rate of 0.5 μl/s, using a 2 μl Hamilton (#2701) syringe (Reno, Nev., USA) with a 26 s-gauge needle mounted on a stereotactic holder at a depth of 5 mm. […] For intracerebral administration of pio/vehicle (DMSO), the tip of an Alzet-brain-infusion-kit (Cupertino, Calif., USA) was placed in a depth of 5 mm, connected to a 2ML4 Alzet osmotic pump (Cupertino, Calif., USA). Drug administration began 4 h after surgery. […] The pumps were filled with 20 μM pio solved in PBS or vehicle (DMSO, 0.1% final concentration) solved in PBS. Animals were randomly distributed in two groups, treated with pio filled pumps (n=26) or vehicle filled pumps (n=26). Thereafter skull was cleaned and the incision sutured. […] Control animals received Purina chow without additions. Rats were allowed free access to the chow. Tumors were allowed to grow and animals were weighed daily. […]

CS-56 = CS-56 expression in vivo (western blot, immunohistochemistry); set-up: species or system rat
Protocol: For western-blot analysis, tumor-containing hemispheres were homogenized in Tris-HCl [50 mM Tris-HCl pH8, 120 mM NaCl, 5 mM EDTA, 0.5% (v/v) NP-40, […] phenylmethylsulfonyl fluoride (PMSF)] and sonicated. Homogenates were collected by centrifugation (15 min 11000 g. 4° C.) and protein concentration in the supernatant was determined using the Bio-Rad Protein Assay (Biorad, Munich, Germany). Lysates (20-40 μg) were separated on a 7% (w/v) sodium dodecyl sulfate (SDS)-polyacrylamide gel under reducing conditions and transferred to a PVDF membrane (Millipore, Bedford, Mass., USA). Non-specific binding was blocked by incubation with 5% (w/v) skimmed milk in TBS for 2 h. Following incubation with the primary antibody overnight at 4° C. [rabbit anti-BAX 1:1000, rabbit anti-cleaved caspase-3 1:1000, mouse […] 1:1000, goat anti-MMP-9 1:1000 in TBS containing 0.1% (v/v) Tween 20] membranes were washed three times in TBS/Tween for 5 min and subsequently incubated for 120 min in TBS/Tween containing secondary peroxidase-conjugated antibody at room temperature (anti-rabbit 1:1000, anti-mouse 1:1000; anti-goat 1:1000 respectively). Signals were visualized by chemoluminescence (Pierce, Rockford, Ill., USA) and band intensities were quantified with NIH Image 1.62 software (Bethesda, Md., USA). Frozen brain sections were first blocked with 5% normal goat serum or normal horse serum in PBS and subsequently incubated with rabbit anti-Ki-67 antibody (1:200 dilution), mouse anti-CS-56 (1:100 dilution), goat anti-MMP-9 (1:100 dilution) or rabbit anti-cleaved caspase-3 antibody (1:200 dilution) at 4° C. overnight. Sections were washed extensively with PBS before incubation with secondary antibodies. Incubation was carried at room temperature for 1 h. After washing with PBS three times, stained slides were mounted with PBS/glycerol (1:1) and viewed under a fluorescent microscope (Leica, Germany).

C6 glioma tumor cells = assay: TUNEL assay for apoptosis in tumors, C6 rat glioma model; type: in vivo; details: 9 days of pio treatment
Protocol: Frozen brain tissue sections were examined for apoptosis using the terminal deoxynucleotidyl transferase-mediated dUTP transferase nick-end labeling (TUNEL assay). Apoptosis was evaluated using the Promega DeadEnd Fluorometric Tunel System (Promega, Madison, Wis., USA) according to the manufacturer's instructions. The percentage of TUNEL positive cells was assessed by counting the immunopositve cells in 1×10^3 tumor (DAPI stain) cells and statistically compared.

Rat C6 glioma cells = assay: MTT viability assay, rat C6 glioma cells; type: cell-based; details: 10 and 30 μM; concentration- and time-dependent; significant at 5 d and 7 d (30 μM) and at 7 d (10 μM)
Protocol: Rat C6 glioma cells were grown in DMEM and human glioma cells (U87, A172) in RPMI, supplemented with 10% (v/v) fetal calf serum, 100 U/mL penicillin and 100 U/mL streptomycin in a 5% CO2 atmosphere. Primary astrocyte cultures were prepared as described previously (J Neurosci 1998; 18: 4451-60) and grown in DMEM, supplemented with 2.5% (v/v) fetal calf serum, 100 U/mL penicillin and 100 U/mL streptomycin in a 5% CO2 atmosphere. […] Experiments were performed in triplicate.

cleaved caspase-3 = assay: Immunohistochemistry of cleaved caspase-3 in tumors, C6 rat glioma model; type: in vivo; details: 6 to 14 days of pio treatment, significant maximum at 9 d
Protocol: Frozen brain sections were first blocked with 5% normal goat serum or normal horse serum in PBS and subsequently incubated with rabbit anti-Ki-67 antibody (1:200 dilution), mouse anti-CS-56 (1:100 dilution), goat anti-MMP-9 (1:100 dilution) or rabbit anti-cleaved caspase-3 antibody (1:200 dilution) at 4° C. overnight. Sections were washed extensively with PBS before incubation with secondary antibodies. Incubation was carried at room temperature for 1 h. After washing with PBS three times, stained slides were mounted with PBS/glycerol (1:1) and viewed under a fluorescent microscope (Leica, Germany). […] The percentage of cleaved caspase-3 positive cells was assessed by counting the immunopositive cells in 1×10^3 tumor (DAPI stain) cells and statistically compared.

C6 glioma cells = assay: Boyden chamber assay, C6 cell migration; type: cell-based, rat
Protocol: C6 cell migration in the presence or absence of pio was assessed using a Boyden chamber (AP48, NeuroProbe, Gaithersburg, Md., USA) with an 8 μm polycarbonate PVPF-filter (Osmonics, Minnetonka, Minn., USA). Cells were suspended in DMEM containing 2.5% fetal calf serum and pio at 30 μM or vehicle (DMSO). C6 glioma cells were pretreated for 24 h in the presence or absence of 30 μM pio. Cells (5×10^3 in 50 μl pio/medium or vehicle/medium) were then plated in the wells of the upper compartment of the chamber (6 well/condition), and the wells of the lower compartment were filled with DMEM. Incubation was performed at 37° C. in 5% CO2 for 4 h. After incubation, cells on the upper surface of the filter, which had not migrated, were gently scraped off, and the filters were then fixed in methanol and subsequently stained with DAPI (1:500 in PBS; Sigma, St. Louis, Mo., USA). The number of cells which migrated to the lower surface of the filter, was counted using public domain software NIH Image 1.62 (Bethesda, Md., USA). Total number of migrating cells under pio treated and vehicle treated condition were compared statistically. Experiments were performed in duplicate.

Compound: CCc1ccc(CCOc2ccc(CC3SC(=O)NC3=O)cc2)nc1 (stereo not drawn) [pioglitazone, 5-[4-[2-(5-ethylpyridin-2-yl)ethoxyl]benzyl]thiazolidine-2,4-dione]
- weight loss [1]: did not show any weight loss
- CS-56 expression (western blot) (CS-56; tissue lysates): upregulation of CS-56 expression
- increase in CS-56 protein levels (densitometry) (CS-56; tissue lysates): around 56%
- CS-56 expression (immunohistochemistry) (CS-56; tumor margin towards healthy brain tissue): upregulation of CS-56
- TUNEL staining (C6 glioma tumor cells): Increased TUNEL staining
- cellular viability, effect in words (Rat C6 glioma cells): significantly reduced the cellular viability
- cleaved caspase-3 expression (immunohistochemistry) (cleaved caspase-3): elevated cleaved caspase-3 expression
- invasiveness of C6 cells (migrated cells) (C6 glioma cells; pio 30 μM during the Boyden chamber incubation, 4 h): reduced the invasiveness of C6 cells significantly
- inhibition of invasiveness after pretreatment (C6 glioma cells; pretreatment of C6 cells for 24 h with 30 μM pio): further increased inhibition
